Results: patent US7855292B2, “Sulfonamide compounds” (Janssen Pharmaceutica NV, priority 2004, dated 2010)

Experiments:
[1] = biological target: T1, CCK2 receptor (Homo sapiens, UniProt P32239); test: CCK2 binding assay ([125I]-BH-CCK-8S displacement, HEKZFP membranes); settings: membranes of doxycycline-induced HEKZFP cells, 20 pM [125I]-BH-CCK-8S, 60 min at 21±3° C.; for Ki: read-out: CCK2 pKi (converted)
T1 construct: analyzed for ZFP expression as well as CCK2R induction upon addition of doxycycline to the culture medium; endogenous in cells
T1 sequence (P32239 1-447): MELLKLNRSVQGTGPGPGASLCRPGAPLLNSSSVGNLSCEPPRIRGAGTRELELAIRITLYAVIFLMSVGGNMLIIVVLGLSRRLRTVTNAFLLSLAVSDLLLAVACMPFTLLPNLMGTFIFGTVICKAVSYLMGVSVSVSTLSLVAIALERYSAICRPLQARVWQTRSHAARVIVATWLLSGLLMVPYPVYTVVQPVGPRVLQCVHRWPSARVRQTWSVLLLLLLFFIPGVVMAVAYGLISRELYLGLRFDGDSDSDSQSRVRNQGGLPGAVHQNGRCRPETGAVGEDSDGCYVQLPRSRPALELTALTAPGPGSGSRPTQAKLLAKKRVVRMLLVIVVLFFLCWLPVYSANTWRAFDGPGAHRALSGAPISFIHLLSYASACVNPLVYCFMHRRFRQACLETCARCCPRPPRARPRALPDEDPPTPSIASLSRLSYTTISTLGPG

[2] = biological target: T2, CCK-1 receptor (Homo sapiens, UniProt P32238); test: CCK1 binding assay ([125I]-BH-CCK-8S displacement, CHO-K1 membranes); settings: membranes of CHO-K1 cells stably transfected with the CCK-1 receptor, 20 pM [125I]-BH-CCK-8S, 0.3 μM PD-134,308 present, 60 min at 21±3° C.; for Ki: read-out: CCK1 pKi (converted)
T2 construct: expressed in transfected cells; host or cells: CHO-K1
T2 sequence (P32238 1-428): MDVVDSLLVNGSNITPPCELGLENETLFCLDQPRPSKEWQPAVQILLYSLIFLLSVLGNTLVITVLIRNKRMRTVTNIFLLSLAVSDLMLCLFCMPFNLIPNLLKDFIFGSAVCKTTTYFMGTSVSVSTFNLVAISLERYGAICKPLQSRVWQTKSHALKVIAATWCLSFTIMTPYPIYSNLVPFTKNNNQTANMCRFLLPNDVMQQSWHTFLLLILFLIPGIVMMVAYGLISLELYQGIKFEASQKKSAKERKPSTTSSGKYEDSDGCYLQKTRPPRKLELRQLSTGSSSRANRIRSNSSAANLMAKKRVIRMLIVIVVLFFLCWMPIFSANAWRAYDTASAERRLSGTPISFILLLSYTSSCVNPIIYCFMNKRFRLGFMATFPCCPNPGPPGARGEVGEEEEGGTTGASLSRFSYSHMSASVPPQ
Outline: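 Membranes from CHO-K1 cells stably expressing CCK-1 incubated 1 h at 21±3° C with 20 pM [125I]-BH-CCK-8S in HEPES buffer pH 7.2 containing 0.3 μM PD-134,308 to block CCK-2. Bound radioactivity read by gamma counting after filtration. pKi derived via Cheng-Prusoff, with specific binding defined using 2-NAP.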

Structure (SMILES)	Ki [1]	Ki [2]	CCK2 pKi [1]	CCK1 pKi [2]
O=C(N[C@@H](Cc1ccc(Cl)cc1)C(=O)O)c1ccc(I)cc1NS(=O)(=O)c1cccc2nccnc12 [Example 90, (S)-3-(4-Chloro-phenyl)-2-[4-iodo-2-(quinoxaline-5-sulfonylamino)-benzoylamino]-propionic acid]	31.6 nM	1260 nM		
O=C(N[C@@H](Cc1ccc(Cl)c(Br)c1)C(=O)O)c1ccc(I)cc1NS(=O)(=O)c1cccc2nsnc12 [Example 91, (S)-2-[2-(Benzo[1,2,5]thiadiazole-4-sulfonylamino)-4-iodo-benzoylamino]-3-(3-bromo-4-chloro-phenyl)-propionic acid]	15.8 nM	79.4 nM		
O=C(N[C@@H](Cc1ccc(F)c(Br)c1)C(=O)O)c1ccc(I)cc1NS(=O)(=O)c1cccc2nsnc12 [Example 93, (S)-2-[2-(Benzo[1,2,5]thiadiazole-4-sulfonylamino)-4-iodo-benzoylamino]-3-(3-bromo-4-fluoro-phenyl)-propionic acid]			8.3	6.8
C[C@@H](NC(=O)c1ccc(I)cc1NS(=O)(=O)c1cccc2nsnc12)[C@@H](O)c1ccc(Cl)cc1 [Example 99, 2-(Benzo[1,2,5]thiadiazole-4-sulfonylamino)-N-[(2S,1R)-2-(4-chloro-phenyl)-2-hydroxy-1-methyl-ethyl]-4-iodo-benzamide]	794 nM	79.4 nM		
C[C@@H](NC(=O)c1ccc(I)cc1NS(=O)(=O)c1cccc2nsnc12)[C@@H](O)c1cccc(Br)c1 [Example 101, 2-(Benzo[1,2,5]thiadiazole-4-sulfonylamino)-N-[(2S,1R)-2-(3-bromo-phenyl)-2-hydroxy-1-methyl-ethyl]-4-iodo-benzamide]	794 nM	39.8 nM		
O=C(N[C@H](Cc1cccc(Br)c1)C(=O)O)c1ccc(I)cc1NS(=O)(=O)c1cccc2nsnc12 [Example 115, (R)-2-[2-(Benzo[1,2,5]thiadiazole-4-sulfonylamino)-4-iodo-benzoylamino]-3-(3-bromo-phenyl)-propionic acid]	79.4 nM	398 nM		
COC(=O)[C@@H](NC(=O)c1ccc(I)cc1NS(=O)(=O)c1c(F)cccc1F)[C@H](C)c1ccc(Cl)c(Cl)c1 [Example 116, (2S,3R)-3-(3,4-Dichloro-phenyl)-2-[2-(2,6-difluoro-benzenesulfonylamino)-4-iodo-benzoylamino]-butyric acid methyl ester]	2000 nM	126 nM		
O=C(N[C@@H](Cc1ccc(Cl)c(Cl)c1)C(=O)O)c1ccc(Cl)cc1NS(=O)(=O)c1c(F)cccc1F [Example 119, (S)-2-[4-Chloro-2-(2,6-difluoro-benzenesulfonylamino)-benzoylamino]-3-(3,4-dichloro-phenyl)-propionic acid]	200 nM	501 nM		
O=C(N[C@H](Cc1ccc(Cl)c(Cl)c1)C(=O)O)c1ccc(Cl)cc1NS(=O)(=O)c1c(F)cccc1F [Example 120, (R)-2-[4-Chloro-2-(2,6-difluoro-benzenesulfonylamino)-benzoylamino]-3-(3,4-dichloro-phenyl)-propionic acid]	1000 nM	79.4 nM		
COC(=O)[C@H](Cc1ccc(F)c(Br)c1)NC(=O)c1ccc(I)cc1NS(=O)(=O)c1c(F)cccc1F [Example 125, (S)-3-(3-Bromo-4-fluoro-phenyl)-2-[2-(2,6-difluoro-benzenesulfonylamino)-4-iodo-benzoylamino]-propionic acid methyl ester]	631 nM	316 nM		

The remaining lines, values ahead:

Ki [1]	Ki [2]	CCK2 pKi [1]	CCK1 pKi [2]	Structure (SMILES)
631 nM	6310 nM			COC(=O)C[C@H](Cc1ccc(Cl)cc1)NC(=O)c1ccc(Cl)cc1NS(=O)(=O)c1cccc2nccnc12 [Example 88, (S)-4-(4-Chloro-phenyl)-3-[4-chloro-2-(quinoxaline-5-sulfonylamino)-benzoylamino]-butyric acid methyl ester]
63.1 nM	7940 nM			O=C(O)C[C@H](Cc1ccc(Cl)cc1)NC(=O)c1ccc(Cl)cc1NS(=O)(=O)c1cccc2nccnc12 [Example 89, (S)-4-(4-Chloro-phenyl)-3-[4-chloro-2-(quinoxaline-5-sulfonylamino)-benzoylamino]-butyric acid]
31.6 nM	63.1 nM			O=C(N[C@@H](Cc1ccc(Cl)c(I)c1)C(=O)O)c1ccc(I)cc1NS(=O)(=O)c1cccc2nsnc12 [Example 92, (S)-2-[2-(Benzo[1,2,5]thiadiazole-4-sulfonylamino)-4-iodo-benzoylamino]-3-(4-chloro-3-iodo-phenyl)-propionic acid]
1000 nM	6310 nM			O=C(N[C@H](C(=O)O)C(c1ccc(Cl)cc1)c1ccc(Cl)cc1)c1ccc(I)cc1NS(=O)(=O)c1cccc2nsnc12 [Example 94, (S)-2-[2-(Benzo[1,2,5]thiadiazole-4-sulfonylamino)-4-iodo-benzoylamino]-3,3-bis-(4-chloro-phenyl)-propionic acid]
794 nM	3160 nM			CC(C)(c1ccc(Cl)cc1)[C@H](NC(=O)c1ccc(I)cc1NS(=O)(=O)c1cccc2nsnc12)C(=O)O [Example 95, (S)-2-[2-(Benzo[1,2,5]thiadiazole-4-sulfonylamino)-4-iodo-benzoylamino]-3-(4-chloro-phenyl)-3-methyl-butyric acid]
794 nM			5.4	CC(C)(c1ccc(Cl)cc1)[C@H](NC(=O)c1ccc(Cl)cc1NS(=O)(=O)c1cccc2nsnc12)C(=O)O [Example 107, (S)-2-[2-(Benzo[1,2,5]thiadiazole-4-sulfonylamino)-4-chloro-benzoylamino]-3-(4-chloro-phenyl)-3-methyl-butyric acid]
		5.9	7.6	C[C@@H](NC(=O)c1ccc(Cl)cc1NS(=O)(=O)c1cccc2nsnc12)[C@@H](O)c1cccc(Br)c1 [Example 108, 2-(Benzo[1,2,5]thiadiazole-4-sulfonylamino)-N-[(2S,1R)-2-(3-bromo-phenyl)-2-hydroxy-1-methyl-ethyl]-4-chloro-benzamide]
398 nM	158 nM			COC(=O)[C@H](Cc1ccc(Cl)c(Br)c1)NC(=O)c1ccc(I)cc1NS(=O)(=O)c1cccc2nsnc12 [Example 122, (S)-2-[2-(Benzo[1,2,5]thiadiazole-4-sulfonylamino)-4-iodo-benzoylamino]-3-(3-bromo-4-chloro-phenyl)-propionic acid methyl ester]
158 nM	100 nM			COC(=O)[C@H](Cc1ccc(F)c(Br)c1)NC(=O)c1ccc(I)cc1NS(=O)(=O)c1cccc2nsnc12 [Example 123, (S)-2-[2-(Benzo[1,2,5]thiadiazole-4-sulfonylamino)-4-iodo-benzoylamino]-3-(3-bromo-4-fluoro-phenyl)-propionic acid methyl ester]
50.1 nM	316 nM			COC(=O)[C@H](Cc1ccc(F)c(Br)c1)NC(=O)c1ccc(I)cc1NS(=O)(=O)c1cccc2nccnc12 [Example 124, (S)-3-(3-Bromo-4-fluoro-phenyl)-2-[4-iodo-2-(quinoxaline-5-sulfonylamino)-benzoylamino]-propionic acid methyl ester]
5.01 nM	251 nM			O=C(N[C@@H](Cc1ccc(F)c(Br)c1)C(=O)O)c1ccc(I)cc1NS(=O)(=O)c1cccc2nccnc12 [Example 126, (S)-3-(3-Bromo-4-fluoro-phenyl)-2-[4-iodo-2-(quinoxaline-5-sulfonylamino)-benzoylamino]-propionic acid]
79.4 nM	200 nM			O=C(N[C@@H](Cc1ccc(F)c(Br)c1)C(=O)O)c1ccc(I)cc1NS(=O)(=O)c1c(F)cccc1F [Example 127, (S)-3-(3-Bromo-4-fluoro-phenyl)-2-[2-(2,6-difluoro-benzenesulfonylamino)-4-iodo-benzoylamino]-propionic acid]
631 nM	100 nM			O=C(N[C@@H](Cc1ccc(Cl)c(Cl)c1)C(=O)NCc1cccc(Cl)c1)c1ccc(Cl)cc1NS(=O)(=O)c1cccc2nsnc12 [Example 128, (S)-2-(Benzo[1,2,5]thiadiazole-4-sulfonylamino)-4-chloro-N-[1-(3-chloro-benzylcarbamoyl)-2-(3,4-dichloro-phenyl)-ethyl]-benzamide]
